Measurements: paper PMC11873239, “A covalent chemical probe for Chikungunya nsP2 cysteine protease with antialphaviral activity and proteome-wide selectivity” (Scientific Reports, 2025)

What was measured:
CHIKV-nLuc = assay: microbe, parasite or virus in culture; format: cell-based; conditions: Chikungunya virus, MRC5, 6 h, read-out: EC50 (CHIKV-nLuc replication)
[1] = biological target: HEK293 cell lysate proteins and CHIKV nsP2 (Homo sapiens, UniProt Q8TEQ6); format: binding
[2] = biological target: HEK293 cell lysate proteins and CHIKV nsP2 (Homo sapiens, UniProt Q02413); format: binding
[3] = biological target: HEK293 cell lysate proteins and CHIKV nsP2 (Homo sapiens, UniProt P05090); format: binding
[4] = biological target: HEK293 cell lysate proteins and CHIKV nsP2 (Homo sapiens, UniProt P27816); format: binding
[5] = biological target: HEK293 cell lysate proteins and CHIKV nsP2 (Homo sapiens, UniProt P32119); format: binding
[6] = biological target: HEK293 cell lysate proteins and CHIKV nsP2 (Homo sapiens, UniProt P59665); format: binding
[7] = biological target: HEK293 cell lysate proteins and CHIKV nsP2 (Homo sapiens, UniProt Q9NYF8); format: binding
[8] = biological target: HEK293 cell lysate proteins and CHIKV nsP2 (Homo sapiens, UniProt P55786); format: binding
[9] = biological target: HEK293 cell lysate proteins and CHIKV nsP2 (Homo sapiens, UniProt P21127); format: binding
[10] = biological target: HEK293 cell lysate proteins and CHIKV nsP2 (Homo sapiens, UniProt P35251); format: binding
[11] = biological target: HEK293 cell lysate proteins and CHIKV nsP2 (Homo sapiens, UniProt P42357); format: binding
[12] = biological target: HEK293 cell lysate proteins and CHIKV nsP2 (Homo sapiens, UniProt Q3YEC7); format: binding
[13] = biological target: HEK293 cell lysate proteins and CHIKV nsP2 (Homo sapiens, UniProt Q01469); format: binding
[14] = biological target: HEK293 cell lysate proteins and CHIKV nsP2 (Homo sapiens, UniProt P31944); format: binding
[15] = biological target: HEK293 cell lysate proteins and CHIKV nsP2 (Homo sapiens, UniProt Q86UP2); format: binding
[16] = biological target: HEK293 cell lysate proteins and CHIKV nsP2 (Homo sapiens, UniProt Q8NI27); format: binding
[17] = biological target: HEK293 cell lysate proteins and CHIKV nsP2 (Homo sapiens, UniProt O14617); format: binding
[18] = biological target: HEK293 cell lysate proteins and CHIKV nsP2 (Homo sapiens, UniProt P46821); format: binding
[19] = biological target: HEK293 cell lysate proteins and CHIKV nsP2 (Homo sapiens, UniProt P62979); format: binding
[20] = biological target: HEK293 cell lysate proteins and CHIKV nsP2 (Homo sapiens, UniProt P68104); format: binding
[21] = biological target: HEK293 cell lysate proteins and CHIKV nsP2 (Homo sapiens, UniProt Q9NWH9); format: binding
[22] = biological target: HEK293 cell lysate proteins and CHIKV nsP2 (Homo sapiens, UniProt P13639); format: binding
[23] = biological target: HEK293 cell lysate proteins and CHIKV nsP2 (Homo sapiens, UniProt Q99549); format: binding
[24] = biological target: HEK293 cell lysate proteins and CHIKV nsP2 (Homo sapiens, UniProt Q15517); format: binding
[25] = biological target: HEK293 cell lysate proteins and CHIKV nsP2 (Homo sapiens, UniProt P11142); format: binding
[26] = biological target: HEK293 cell lysate proteins and CHIKV nsP2 (Homo sapiens, UniProt Q5T750); format: binding
[27] = biological target: HEK293 cell lysate proteins and CHIKV nsP2 (Homo sapiens, UniProt Q15424); format: binding
[28] = biological target: HEK293 cell lysate proteins and CHIKV nsP2 (Homo sapiens, UniProt Q5JTH9); format: binding

Sequence of HEK293 cell lysate proteins and CHIKV nsP2 (Homo sapiens, UniProt Q3YEC7) (Q3YEC7 whole entry): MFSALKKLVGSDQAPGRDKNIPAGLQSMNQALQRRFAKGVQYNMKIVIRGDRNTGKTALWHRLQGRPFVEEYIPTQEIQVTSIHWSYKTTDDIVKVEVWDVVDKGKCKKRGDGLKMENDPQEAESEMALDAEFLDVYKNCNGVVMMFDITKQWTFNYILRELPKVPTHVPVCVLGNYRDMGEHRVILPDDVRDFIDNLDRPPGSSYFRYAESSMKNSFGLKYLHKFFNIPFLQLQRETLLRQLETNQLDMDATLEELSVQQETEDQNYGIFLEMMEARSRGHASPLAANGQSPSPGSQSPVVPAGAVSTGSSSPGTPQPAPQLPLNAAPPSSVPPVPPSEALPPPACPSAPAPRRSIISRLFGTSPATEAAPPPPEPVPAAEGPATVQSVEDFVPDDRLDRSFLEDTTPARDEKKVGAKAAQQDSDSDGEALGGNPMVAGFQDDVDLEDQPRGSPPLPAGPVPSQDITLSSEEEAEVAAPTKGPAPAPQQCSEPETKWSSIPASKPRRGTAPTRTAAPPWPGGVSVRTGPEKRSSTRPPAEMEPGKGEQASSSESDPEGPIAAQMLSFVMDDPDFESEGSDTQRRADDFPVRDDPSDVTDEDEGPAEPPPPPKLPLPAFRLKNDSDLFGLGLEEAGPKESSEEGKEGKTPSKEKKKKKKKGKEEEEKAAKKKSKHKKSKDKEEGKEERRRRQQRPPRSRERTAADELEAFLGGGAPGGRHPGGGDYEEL
Sequence of HEK293 cell lysate proteins and CHIKV nsP2 (Homo sapiens, UniProt P35251) (P35251 whole entry): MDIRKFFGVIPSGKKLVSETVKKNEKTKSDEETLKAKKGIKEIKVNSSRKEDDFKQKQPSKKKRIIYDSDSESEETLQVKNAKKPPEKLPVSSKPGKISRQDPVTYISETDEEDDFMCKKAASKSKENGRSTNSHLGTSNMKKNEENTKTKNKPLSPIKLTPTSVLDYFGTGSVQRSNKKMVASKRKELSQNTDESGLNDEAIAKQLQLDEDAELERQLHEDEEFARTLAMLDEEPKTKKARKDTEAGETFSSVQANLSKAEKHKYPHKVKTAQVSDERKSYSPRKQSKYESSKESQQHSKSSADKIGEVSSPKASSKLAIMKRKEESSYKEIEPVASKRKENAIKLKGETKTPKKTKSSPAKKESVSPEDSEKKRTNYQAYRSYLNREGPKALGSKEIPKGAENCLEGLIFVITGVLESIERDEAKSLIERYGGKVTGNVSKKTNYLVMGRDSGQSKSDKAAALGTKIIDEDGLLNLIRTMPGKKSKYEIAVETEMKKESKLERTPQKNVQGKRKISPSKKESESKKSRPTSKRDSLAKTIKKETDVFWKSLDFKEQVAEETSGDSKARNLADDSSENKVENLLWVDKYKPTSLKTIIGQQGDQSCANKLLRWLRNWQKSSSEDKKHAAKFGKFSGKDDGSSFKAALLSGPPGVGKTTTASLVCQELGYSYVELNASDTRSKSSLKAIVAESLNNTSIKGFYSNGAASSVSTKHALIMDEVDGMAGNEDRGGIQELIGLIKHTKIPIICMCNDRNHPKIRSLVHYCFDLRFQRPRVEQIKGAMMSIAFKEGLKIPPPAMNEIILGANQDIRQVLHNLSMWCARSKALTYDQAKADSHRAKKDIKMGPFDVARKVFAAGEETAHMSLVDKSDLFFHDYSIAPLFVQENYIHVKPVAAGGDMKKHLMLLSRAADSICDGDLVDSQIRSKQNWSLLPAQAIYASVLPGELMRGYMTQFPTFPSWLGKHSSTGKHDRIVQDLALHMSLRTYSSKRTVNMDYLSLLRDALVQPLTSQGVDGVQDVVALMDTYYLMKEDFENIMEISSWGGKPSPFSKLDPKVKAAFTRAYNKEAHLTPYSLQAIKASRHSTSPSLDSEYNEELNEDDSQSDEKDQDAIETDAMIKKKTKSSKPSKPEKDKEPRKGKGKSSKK
Sequence of HEK293 cell lysate proteins and CHIKV nsP2 (Homo sapiens, UniProt Q15424) (Q15424 whole entry): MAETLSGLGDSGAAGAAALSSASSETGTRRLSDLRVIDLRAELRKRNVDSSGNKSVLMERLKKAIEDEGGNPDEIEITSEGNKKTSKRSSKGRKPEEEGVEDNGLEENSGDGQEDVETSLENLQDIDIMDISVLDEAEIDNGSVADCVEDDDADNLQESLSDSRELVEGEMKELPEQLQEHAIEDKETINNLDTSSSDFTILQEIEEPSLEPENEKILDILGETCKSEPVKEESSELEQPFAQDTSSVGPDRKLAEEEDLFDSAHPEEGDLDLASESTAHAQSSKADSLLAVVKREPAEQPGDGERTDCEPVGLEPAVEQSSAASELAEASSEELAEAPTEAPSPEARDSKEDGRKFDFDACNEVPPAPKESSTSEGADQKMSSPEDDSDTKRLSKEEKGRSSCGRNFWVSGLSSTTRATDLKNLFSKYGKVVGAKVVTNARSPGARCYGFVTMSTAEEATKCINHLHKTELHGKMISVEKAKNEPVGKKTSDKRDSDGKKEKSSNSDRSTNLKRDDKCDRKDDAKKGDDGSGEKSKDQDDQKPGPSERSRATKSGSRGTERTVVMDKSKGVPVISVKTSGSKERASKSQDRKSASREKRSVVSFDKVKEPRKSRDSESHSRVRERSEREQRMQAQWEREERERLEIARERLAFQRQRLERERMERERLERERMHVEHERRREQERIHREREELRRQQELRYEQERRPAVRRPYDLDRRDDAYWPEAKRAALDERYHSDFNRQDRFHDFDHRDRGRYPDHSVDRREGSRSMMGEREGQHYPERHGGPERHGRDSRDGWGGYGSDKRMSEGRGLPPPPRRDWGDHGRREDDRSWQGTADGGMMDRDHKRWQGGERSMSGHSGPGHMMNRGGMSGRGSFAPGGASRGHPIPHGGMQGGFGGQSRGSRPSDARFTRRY
Sequence of HEK293 cell lysate proteins and CHIKV nsP2 (Homo sapiens, UniProt P42357) (P42357 whole entry): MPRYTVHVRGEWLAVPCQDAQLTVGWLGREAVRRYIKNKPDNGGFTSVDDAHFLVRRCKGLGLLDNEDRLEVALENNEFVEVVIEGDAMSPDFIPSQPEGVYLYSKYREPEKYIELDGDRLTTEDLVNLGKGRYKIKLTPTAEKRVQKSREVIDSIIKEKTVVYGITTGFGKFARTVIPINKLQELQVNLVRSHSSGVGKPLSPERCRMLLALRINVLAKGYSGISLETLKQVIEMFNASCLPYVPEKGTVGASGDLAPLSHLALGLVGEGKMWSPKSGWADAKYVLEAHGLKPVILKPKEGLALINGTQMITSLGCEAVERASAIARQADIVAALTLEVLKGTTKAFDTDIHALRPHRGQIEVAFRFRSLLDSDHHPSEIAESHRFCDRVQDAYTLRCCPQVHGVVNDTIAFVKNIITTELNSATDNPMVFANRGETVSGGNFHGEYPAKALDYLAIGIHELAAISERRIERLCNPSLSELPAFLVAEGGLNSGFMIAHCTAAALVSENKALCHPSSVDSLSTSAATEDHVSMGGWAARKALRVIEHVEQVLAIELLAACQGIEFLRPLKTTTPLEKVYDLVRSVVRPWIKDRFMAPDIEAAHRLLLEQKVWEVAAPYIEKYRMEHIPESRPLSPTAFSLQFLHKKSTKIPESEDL
Sequence of HEK293 cell lysate proteins and CHIKV nsP2 (Homo sapiens, UniProt Q02413) (Q02413 50-1049): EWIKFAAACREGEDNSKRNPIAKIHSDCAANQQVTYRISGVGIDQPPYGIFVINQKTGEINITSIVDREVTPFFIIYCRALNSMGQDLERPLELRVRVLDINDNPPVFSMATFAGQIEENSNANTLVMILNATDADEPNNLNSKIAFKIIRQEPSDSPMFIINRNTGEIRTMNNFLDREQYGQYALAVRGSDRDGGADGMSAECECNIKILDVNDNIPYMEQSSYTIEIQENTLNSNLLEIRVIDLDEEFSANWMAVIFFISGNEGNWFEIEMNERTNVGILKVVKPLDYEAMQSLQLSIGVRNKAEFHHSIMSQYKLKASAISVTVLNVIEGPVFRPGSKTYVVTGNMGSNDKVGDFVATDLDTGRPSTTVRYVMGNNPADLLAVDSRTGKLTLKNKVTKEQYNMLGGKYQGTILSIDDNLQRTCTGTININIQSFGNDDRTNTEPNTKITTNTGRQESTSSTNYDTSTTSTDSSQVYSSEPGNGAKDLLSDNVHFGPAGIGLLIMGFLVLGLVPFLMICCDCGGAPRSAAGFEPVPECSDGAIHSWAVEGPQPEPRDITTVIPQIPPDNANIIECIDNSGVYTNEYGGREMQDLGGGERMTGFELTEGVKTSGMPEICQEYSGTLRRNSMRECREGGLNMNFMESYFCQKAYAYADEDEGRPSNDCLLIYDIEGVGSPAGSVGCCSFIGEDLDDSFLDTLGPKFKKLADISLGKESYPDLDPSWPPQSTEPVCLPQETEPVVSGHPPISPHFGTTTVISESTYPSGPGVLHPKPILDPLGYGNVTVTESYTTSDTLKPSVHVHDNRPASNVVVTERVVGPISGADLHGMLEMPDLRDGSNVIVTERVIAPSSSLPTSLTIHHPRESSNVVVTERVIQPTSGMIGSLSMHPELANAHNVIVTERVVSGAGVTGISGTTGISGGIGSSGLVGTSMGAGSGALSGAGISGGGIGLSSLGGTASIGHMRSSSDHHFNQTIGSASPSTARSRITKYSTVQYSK
Sequence of HEK293 cell lysate proteins and CHIKV nsP2 (Homo sapiens, UniProt Q15517) (Q15517 33-529): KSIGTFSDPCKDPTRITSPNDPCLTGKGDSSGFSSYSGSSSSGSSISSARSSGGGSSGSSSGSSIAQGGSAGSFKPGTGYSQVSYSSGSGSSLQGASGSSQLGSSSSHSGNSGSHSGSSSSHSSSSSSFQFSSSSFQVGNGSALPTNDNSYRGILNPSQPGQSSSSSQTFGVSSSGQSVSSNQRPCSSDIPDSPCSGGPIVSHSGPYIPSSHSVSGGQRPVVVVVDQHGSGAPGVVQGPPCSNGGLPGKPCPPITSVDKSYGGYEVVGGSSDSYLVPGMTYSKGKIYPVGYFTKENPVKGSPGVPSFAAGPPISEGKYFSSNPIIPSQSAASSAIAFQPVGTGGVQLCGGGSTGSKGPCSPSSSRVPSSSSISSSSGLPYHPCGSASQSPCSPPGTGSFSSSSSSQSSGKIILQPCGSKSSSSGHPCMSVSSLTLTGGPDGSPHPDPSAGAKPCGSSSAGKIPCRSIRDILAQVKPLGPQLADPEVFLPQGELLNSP
Sequence of HEK293 cell lysate proteins and CHIKV nsP2 (Homo sapiens, UniProt P59665) (P59665 39-94): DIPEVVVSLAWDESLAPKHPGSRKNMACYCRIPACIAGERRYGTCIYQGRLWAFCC

C#CCOc1ccccc1-c1cc(C(=O)NC/C=C/S(C)(=O)=O)on1 [VS, (E)-N-(3-(methylsulfonyl)allyl)−3-(2-(prop-2-yn-1-yloxy)phenyl)isoxazole-5-carboxamide]
EC50 (CHIKV-nLuc): 0.033 µM
Log2 fold change [1]: -0.32
Log2 fold change [2]: 1.36
Log2 fold change [3]: 6.55
Log2 fold change [4]: -0.37
Log2 fold change [5]: 2.04
Log2 fold change [6]: -2.83
Log2 fold change [7]: -0.75
Log2 fold change [8]: 2.43
Log2 fold change [9]: 0.12
Log2 fold change [10]: 0.30
Log2 fold change [11]: 1.12
Log2 fold change [12]: -2.27
Log2 fold change [13]: 2.38
Log2 fold change [14]: 1.29
Log2 fold change [15]: 0.34
Log2 fold change [16]: -0.12
Log2 fold change [17]: -0.93
Log2 fold change [18]: -0.63
Log2 fold change [19]: 0.71
Log2 fold change [20]: 0.56
Log2 fold change [21]: -0.40
Log2 fold change [22]: 1.35
Log2 fold change [23]: 0.0737
Log2 fold change [24]: 1.22
Log2 fold change [25]: 1.15
Log2 fold change [26]: 2.49
Log2 fold change [27]: 1.46
Log2 fold change [28]: -0.0263
